Results reported in patent publication US6583299B1, “α-amino-β-sulfonyl hydroxamic acid compounds” (priority 1999, dated 2003).

Columns and labels:
MMP-13 = molecular target: T1, MMP-13 (Homo sapiens, UniProt P45452); test: In vitro metalloprotease inhibition, fluorogenic MCA peptide substrate; type: biochemical; settings: recombinant human enzyme, APMA-activated, room temperature, pH 7.5; read-out: MMP-13 IC50
T1 construct: made in house; host or cells: baculovirus / insect cells

MMP-1 = molecular target: T2, MMP-1 (Homo sapiens, UniProt P03956); test: as above; type: biochemical; settings: recombinant human enzyme, APMA-activated, room temperature, pH 7.5
T2 construct: host or cells: transfected HT-1080 cells
T2 sequence (P03956 100-469): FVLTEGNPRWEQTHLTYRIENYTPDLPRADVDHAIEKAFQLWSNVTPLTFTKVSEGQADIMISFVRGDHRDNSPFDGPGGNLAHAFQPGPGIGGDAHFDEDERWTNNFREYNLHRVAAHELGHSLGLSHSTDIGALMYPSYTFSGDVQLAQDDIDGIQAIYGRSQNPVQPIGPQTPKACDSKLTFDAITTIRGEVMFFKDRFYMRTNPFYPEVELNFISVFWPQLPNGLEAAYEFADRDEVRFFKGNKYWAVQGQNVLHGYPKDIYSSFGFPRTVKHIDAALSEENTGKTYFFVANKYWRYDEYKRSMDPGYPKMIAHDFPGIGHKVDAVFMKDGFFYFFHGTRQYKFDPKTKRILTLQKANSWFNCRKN

| IC50 (MMP-13) [nM] | IC50 (MMP-1) [nM] | Compound |
| --- | --- | --- |
| 15 | 300 | COc1ccc(S(=O)(=O)CC(NC(C)=O)C(=O)NO)cc1 (centres unmarked) [Example 1, N-Hydroxy-3-[(4-methoxyphenyl)sulfonyl]-2-[(methylcarbonyl)amino]propanamide] |
| 15 | 1500 | COc1ccc(S(=O)(=O)CC(NC(=O)NC(C)(C)C)C(=O)NO)cc1 (centres unmarked) [Example 2, 2-[[[(1,1-Dimethylethyl)amino]carbonyl]amino]-N-hydroxy-3-[(4-methoxyphenyl)sulfonyl]propanamide] |
| < 1 | 40 | COc1ccc(S(=O)(=O)CC(NC(=O)CNC(=O)OCc2ccccc2)C(=O)NO)cc1 (centres unmarked) [Example 6, Phenylmethyl-[2-[[2-(hydroxyamino)-2-oxo-1-[[[4-methoxyphenyl]sulfonyl]methyl]ethyl]amino]-2-oxoethyl]carbamate] |
| 1.1 | 770 | CC(=O)N[C@@H](CS(=O)(=O)c1ccc(Oc2ccccc2)cc1)C(=O)NO [Example 9g, N^2-Acetyl-N^1-hydroxyl-3-[(4-phenoxyphenyl)sulphonyl]alaninamide] |
| 2.7 | 1600 | CC(C)(C)C(=O)NC(CS(=O)(=O)c1ccc(Oc2ccccc2)cc1)C(=O)NO (centres unmarked) [Example 10d] |
| 6 |  | CCCCC(=O)NC(CS(=O)(=O)c1ccc(Sc2ccccc2)cc1)C(=O)NO (centres unmarked) [Example 11g, N-[1-[(Hydroxyamino)carbonyl]-2-[[4-(phenylthio)phenyl]sulfonyl]ethyl]pentanamide] |
| 3.7 | > 10000 | O=C(NC(CS(=O)(=O)c1ccc(Sc2ccccc2)cc1)C(=O)NO)OCc1ccccc1 (centres unmarked) [Example 14c, Phenylmethyl-[2-(hydroxyamino)-2-oxo-1-[[[4-(phenylthio)-phenyl]sulfonyl]methyl]ethyl]carbamate] |
| 0.8 | > 10000 | O=C(CNC(=O)OCc1ccccc1)NC(CS(=O)(=O)c1ccc(Sc2ccccc2)cc1)C(=O)NO (centres unmarked) [Example 16c, Phenylmethyl-[2-[[2-(hydroxyamino)-2-oxo-1-[[[4-(phenylthio)-phenyl]sulfonyl]methyl]ethyl]amino]-2-oxoethyl]carbamate] |
| 0.4 | 600 | Cc1ccc(S(=O)(=O)NC(CS(=O)(=O)c2ccc(Sc3ccccc3)cc2)C(=O)NO)cc1 (centres unmarked) [Example 17c] |
| 24 | > 10000 | NC(CS(=O)(=O)c1ccc(Sc2ccccc2)cc1)C(=O)NO (centres unmarked) [Example 18a] |
| 0.8 | > 10000 | C[C@H](NC(=O)OCc1ccccc1)C(=O)NC(CS(=O)(=O)c1ccc(Sc2ccccc2)cc1)C(=O)NO (some centres unmarked) [Example 19a] |
| 4 | > 10000 | CC(C)(C)NC(=O)NC(CS(=O)(=O)c1ccc(Sc2ccccc2)cc1)C(=O)NO (centres unmarked) [Example 20b] |
| 15 | 300 | COc1ccc(S(=O)(=O)CC(NS(C)(=O)=O)C(=O)NO)cc1 (centres unmarked) [Example 21] |
| 14 | > 10000 | O=C(NC(CS(=O)(=O)c1ccc(Sc2ccccc2)cc1)C(=O)NO)c1ccco1 (centres unmarked) [Example 27] |
| 5 |  | CC(C)(C)NC(=O)NC(CS(=O)(=O)c1ccc(Sc2ccccc2)cc1)C(=O)NO (centres unmarked) [Example 45] |
| 160 |  | CC(CS(=O)(=O)c1ccc(Oc2ccccc2)cc1)(NC(=O)CN1CCCC1)C(=O)NO (centres unmarked) [Example 49] |
| 24 |  | CN(C)C(C)(CS(=O)(=O)c1ccc(Oc2ccccc2)cc1)C(=O)NO (centres unmarked) [Example 52] |
| 0.3 |  | CC(CS(=O)(=O)c1ccc(Oc2ccccc2)cc1)(NCc1ccccc1)C(=O)NO (centres unmarked) [Example 56] |
| 580 |  | CC(=O)NC(C)(CS(=O)(=O)c1ccc(Sc2ccccc2)cc1)C(=O)NO (centres unmarked) [Example 57] |
| 161 |  | O=C(NC(CS(=O)(=O)c1ccc(Oc2ccccc2)cc1)(C(=O)NO)c1ccccc1)c1ccccc1 (centres unmarked) [Example 65] |
| 1.1 |  | CC(CS(=O)(=O)c1ccc(Oc2ccccc2)cc1)(NCc1ccc2c(c1)OCO2)C(=O)NO (centres unmarked) [Example 66] |
| 1.4 |  | CC(CS(=O)(=O)c1ccc(Oc2ccccc2)cc1)(NCc1ccc2ccccc2c1)C(=O)NO (centres unmarked) [Example 68] |
